# Measurements: PubChem BioAssay AID1963981 (Molecular Pharmacology Branch, DTP, NCI, 2024)
# pIC50: −log10 of the molar value.
# Tested on: 354836-022-R-J1-PDC multicell spheroid viability
# Assay: Anticancer human tumor 354836-022-R-J1-PDC patient-derived head and neck squamous cell carcinoma cell line growth inhibition [PI3K]
# Settings: for pIC50: curve of first compound; for viability, T/C: stronger effect = lower value
# Procedure, shortened: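 Three cell types, namely tumor cells, endothelial cells and mesenchymal stem cells, formed each spheroid. Combinations with four PI3K inhibitors were screened at clinically achievable concentrations decreasing by half-log, and spheroid viability was recorded.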
# [1] = second compound 0.00316 µM, first compound 0.0316 µM
# [2] = second compound 0.00316 µM, first compound 0.1 µM
# [3] = second compound 0.00316 µM, first compound 0.316 µM
# [4] = second compound 0.00316 µM, first compound 1 µM
# [5] = second compound 0.00316 µM, first compound 3.16 µM
# [6] = second compound 0.00316 µM, first compound 10 µM
# [7] = second compound 0.01 µM, first compound 0.0316 µM
# [8] = second compound 0.01 µM, first compound 0.1 µM
# [9] = second compound 0.01 µM, first compound 0.316 µM
# [10] = second compound 0.01 µM, first compound 1 µM
# [11] = second compound 0.01 µM, first compound 3.16 µM
# [12] = second compound 0.01 µM, first compound 10 µM
# [13] = second compound 0.0316 µM, first compound 0.0316 µM
# [14] = second compound 0.0316 µM, first compound 0.1 µM
# [15] = second compound 0.0316 µM, first compound 0.316 µM
# [16] = second compound 0.0316 µM, first compound 1 µM
# [17] = second compound 0.0316 µM, first compound 3.16 µM
# [18] = second compound 0.0316 µM, first compound 10 µM
# [19] = second compound 0.1 µM, first compound 0.0316 µM
# [20] = second compound 0.1 µM, first compound 0.1 µM
# [21] = second compound 0.1 µM, first compound 0.316 µM
# [22] = second compound 0.1 µM, first compound 1 µM
# [23] = second compound 0.1 µM, first compound 3.16 µM
# [24] = second compound 0.1 µM, first compound 10 µM
# [25] = second compound 0.316 µM, first compound 0.0316 µM
# [26] = second compound 0.316 µM, first compound 0.1 µM
# [27] = second compound 0.316 µM, first compound 0.316 µM
# [28] = second compound 0.316 µM, first compound 1 µM
# [29] = second compound 0.316 µM, first compound 3.16 µM
# [30] = second compound 0.316 µM, first compound 10 µM
# [31] = second compound 1 µM, first compound 0.0316 µM
# [32] = second compound 1 µM, first compound 0.1 µM
# [33] = second compound 1 µM, first compound 0.316 µM
# [34] = second compound 1 µM, first compound 1 µM
# [35] = second compound 1 µM, first compound 3.16 µM
# [36] = second compound 1 µM, first compound 10 µM
# 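Also: spheroids exposed to agents for seven days before the viability read.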
smiles,measurement,setting,value
C#Cc1c(F)ccc2cc(O)cc(-c3ncc4c(N5CC6CCC(C5)N6)nc(OCC56CCCN5CC(F)C6)nc4c3F)c12 (stereo unspecified) + CC(Nc1ccc2c(c1)OCCn1cc(N3C(=O)OCC3C(F)F)nc1-2)C(N)=O,pIC50,second compound 0.00316 µM,< 5.00
same,pIC50,second compound 0.01 µM,< 5.00
same,pIC50,second compound 0.0316 µM,< 5.00
same,pIC50,second compound 0.1 µM,< 5.00
same,pIC50,second compound 0.316 µM,< 5.00
same,pIC50,second compound 1 µM,< 5.00
same,"viability, T/C",[1],106%
same,"viability, T/C",[2],78%
same,"viability, T/C",[3],96.6%
same,"viability, T/C",[4],92.7%
same,"viability, T/C",[5],97.4%
same,"viability, T/C",[6],99.1%
same,"viability, T/C",[7],97.5%
same,"viability, T/C",[8],98.9%
same,"viability, T/C",[9],93.4%
same,"viability, T/C",[10],96.4%
same,"viability, T/C",[11],103%
same,"viability, T/C",[12],99%
same,"viability, T/C",[13],87.3%
same,"viability, T/C",[14],108%
same,"viability, T/C",[15],80.9%
same,"viability, T/C",[16],95.5%
same,"viability, T/C",[17],97.8%
same,"viability, T/C",[18],92.9%
same,"viability, T/C",[19],78.7%
same,"viability, T/C",[20],103%
same,"viability, T/C",[21],78.1%
same,"viability, T/C",[22],92.4%
same,"viability, T/C",[23],88.8%
same,"viability, T/C",[24],71.8%
same,"viability, T/C",[25],70.8%
same,"viability, T/C",[26],89.1%
same,"viability, T/C",[27],79.5%
same,"viability, T/C",[28],79.7%
same,"viability, T/C",[29],83.5%
same,"viability, T/C",[30],61.9%
same,"viability, T/C",[31],70.2%
same,"viability, T/C",[32],56.8%
same,"viability, T/C",[33],55.9%
same,"viability, T/C",[34],59.7%
same,"viability, T/C",[35],57.2%
same,"viability, T/C",[36],54%
CC(Cn1ccc(-c2ccc(C#N)c(Cl)c2)n1)NC(=O)c1cc(C(C)O)[nH]n1 (stereo unspecified) + CC(Nc1ccc2c(c1)OCCn1cc(N3C(=O)OCC3C(F)F)nc1-2)C(N)=O,pIC50,second compound 0.00316 µM,< 5.00
same,pIC50,second compound 0.01 µM,< 5.00
same,pIC50,second compound 0.0316 µM,< 5.00
same,pIC50,second compound 0.1 µM,< 5.00
same,pIC50,second compound 0.316 µM,< 5.00
same,pIC50,second compound 1 µM,5.07
same,"viability, T/C",[1],99.4%
same,"viability, T/C",[2],88.8%
same,"viability, T/C",[3],96.7%
same,"viability, T/C",[4],86.8%
same,"viability, T/C",[5],94.3%
same,"viability, T/C",[6],73.8%
same,"viability, T/C",[7],95.9%
same,"viability, T/C",[8],103%
same,"viability, T/C",[9],99.6%
same,"viability, T/C",[10],81.8%
same,"viability, T/C",[11],88.3%
same,"viability, T/C",[12],74.8%
same,"viability, T/C",[13],78.9%
same,"viability, T/C",[14],87.6%
same,"viability, T/C",[15],92.5%
same,"viability, T/C",[16],97.4%
same,"viability, T/C",[17],91.1%
same,"viability, T/C",[18],81.8%
same,"viability, T/C",[19],77.2%
same,"viability, T/C",[20],91.9%
same,"viability, T/C",[21],83.7%
same,"viability, T/C",[22],87.3%
same,"viability, T/C",[23],73.9%
same,"viability, T/C",[24],82.9%
same,"viability, T/C",[25],75.3%
same,"viability, T/C",[26],67.5%
same,"viability, T/C",[27],69.8%
same,"viability, T/C",[28],75.5%
same,"viability, T/C",[29],76.8%
same,"viability, T/C",[30],63.6%
same,"viability, T/C",[31],71.2%
same,"viability, T/C",[32],67.4%
same,"viability, T/C",[33],69.5%
same,"viability, T/C",[34],64.3%
same,"viability, T/C",[35],61.4%
same,"viability, T/C",[36],48%
CC1(C)CCC(Nc2ncc(C(F)(F)F)c(-c3c[nH]c4c(P(C)(C)=O)c(C#N)ccc34)n2)CN1 (stereo unspecified) + CC(Nc1ccc2c(c1)OCCn1cc(N3C(=O)OCC3C(F)F)nc1-2)C(N)=O,pIC50,second compound 0.00316 µM,> 7.50
same,pIC50,second compound 0.01 µM,> 7.50
same,pIC50,second compound 0.0316 µM,> 7.50
same,pIC50,second compound 0.1 µM,> 7.50
same,pIC50,second compound 0.316 µM,> 7.50
same,pIC50,second compound 1 µM,> 7.50
same,"viability, T/C",[1],21.5%
same,"viability, T/C",[2],18.9%
same,"viability, T/C",[3],21.4%
same,"viability, T/C",[4],22.9%
same,"viability, T/C",[5],32.5%
same,"viability, T/C",[6],2.76%
same,"viability, T/C",[7],28.1%
same,"viability, T/C",[8],18.5%
same,"viability, T/C",[9],27.8%
same,"viability, T/C",[10],25.4%
same,"viability, T/C",[11],32.9%
same,"viability, T/C",[12],2.41%
same,"viability, T/C",[13],16.7%
same,"viability, T/C",[14],21.1%
same,"viability, T/C",[15],16.9%
same,"viability, T/C",[16],19%
same,"viability, T/C",[17],23.6%
same,"viability, T/C",[18],1.33%
same,"viability, T/C",[19],18.6%
same,"viability, T/C",[20],15.8%
same,"viability, T/C",[21],22.1%
same,"viability, T/C",[22],16.2%
same,"viability, T/C",[23],22.3%
same,"viability, T/C",[24],1.47%
same,"viability, T/C",[25],12.8%
same,"viability, T/C",[26],15.8%
same,"viability, T/C",[27],14.7%
same,"viability, T/C",[28],19.9%
same,"viability, T/C",[29],18.3%
same,"viability, T/C",[30],1.99%
same,"viability, T/C",[31],14.1%
same,"viability, T/C",[32],13%
same,"viability, T/C",[33],14.1%
same,"viability, T/C",[34],16.6%
same,"viability, T/C",[35],19.3%
same,"viability, T/C",[36],1.51%
